The values below come from US9102591B2, “Benzamides” (H. Lundbeck A/S, priority 2012, dated 2015).

P2X7 receptor, sequence (Q99572 whole entry): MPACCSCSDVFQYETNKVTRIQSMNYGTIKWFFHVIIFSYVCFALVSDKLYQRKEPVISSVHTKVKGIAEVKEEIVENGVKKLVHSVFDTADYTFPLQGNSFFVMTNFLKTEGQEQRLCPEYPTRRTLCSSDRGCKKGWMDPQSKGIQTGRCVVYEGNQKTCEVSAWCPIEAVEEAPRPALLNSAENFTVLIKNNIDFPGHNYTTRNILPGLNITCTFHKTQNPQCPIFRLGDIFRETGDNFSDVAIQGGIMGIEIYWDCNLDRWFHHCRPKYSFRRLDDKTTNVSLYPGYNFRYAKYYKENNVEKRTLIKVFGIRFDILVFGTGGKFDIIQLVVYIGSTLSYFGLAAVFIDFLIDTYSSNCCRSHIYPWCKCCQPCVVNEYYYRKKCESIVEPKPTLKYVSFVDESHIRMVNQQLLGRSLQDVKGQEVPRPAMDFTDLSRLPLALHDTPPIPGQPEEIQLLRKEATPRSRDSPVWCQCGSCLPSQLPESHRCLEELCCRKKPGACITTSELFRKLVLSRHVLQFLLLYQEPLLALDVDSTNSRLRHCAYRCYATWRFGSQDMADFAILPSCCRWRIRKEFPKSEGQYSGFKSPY

This assay addresses P2X7 receptor (Homo sapiens (Human), UniProt Q99572). The experiment in a line: P2X7 FLIPR assay (BzATP-stimulated calcium fluorescence, antagonist IC50). The format is cell-based. As for the experimental part:
This example illustrates representative assays for use in evaluating the test compounds for antagonist activity. Compounds of the present invention were tested in vitro for their ability to act as antagonists to the P2X7receptor. […]
Cells were plated to cell density of approximately 15,000 cells/well in 384-well assay plates (50 μl/well) with 1.5% low serum media (DMEM, 1.5% FBS, 1% L-glut (2 mM), 10 mM HUES, 1% P/S). Cells were plated 24 hours prior to assay. Cells expressing human, rat or mouse P2X7 receptor were assayed in the following manner.
Fluo-4 NW dye mix (Molecular Probes, Inc., Eugene, Oreg., USA) was prepared in buffer (see manufacturer's instructions). Cell plates were removed from the 37° C. incubator, the media discarded and then 30 μL of dye was added to each well. Plates were placed in the 37° C., non-CO2 incubator for 30 minutes and then room temperature for 30 minutes.
Compound mixtures (A) were added to assay plates containing cells and placed at room temperature for 30 minutes, then BzATP (B) was added. Fluorescence was read using the Tetra FLIPR® (Molecular Devices, Inc., Sunnyvale, Calif., USA) and IC50 values were calculated by standard methods to determine antagonist activity.
Regarding `O=C(NCC1(c2ccc(F)nc2)CCC(F)(F)CC1)c1ccccc1F` [N-((4,4-difluoro-1-(6-fluoropyridin-3-yl)cyclohexyl)methyl)-] [N-((4,4-difluoro-1-(6-fluoropyridin-3-yl)cyclohexyl)methyl)-2-fluorobenzamide], the IC50 stood at 190 nM.

`O=C(NCC1(c2ccc(C(F)(F)F)cc2)CCOCC1)c1cccc(Cl)c1Cl`: the IC50 is 41 nM.

Turning to `O=C(NCC1(c2ccc(Cl)cc2)CCOCC1)c1cc(Br)ccc1Cl` [5-Bromo-2-chloro-N-[4-(4-chloro-phenyl)-tetrahydro-pyran-4-ylmethyl]-benzamide], the IC50 stood at 130 nM.

With `Cc1ncc(C(CNC(=O)c2cccc(Cl)c2Cl)C2CCOCC2)cn1` (single isomer, unassigned; (-)) [(−)2,3-dichloro-N-[2-(2-methylpyrimidin-5-yl)-2-tetrahydropy] [(−)2,3-dichloro-N-[2-(2-methylpyrimidin-5-yl)-2-tetrahydropyran-4-yl-ethyl]benzamide], the half-inhibitory concentration (IC50) came to 58 nM. In the case of `O=C(NCC1(c2cccnc2)CCCC1)c1cccc(Cl)c1Cl` [2,3-Dichloro-N-(1-pyridin-3-yl-cyclopentylmethyl)-benzamide], the IC50 is 2200 nM. Next, `Cc1ncc(C2(CNC(=O)c3cccc(Cl)c3Cl)CCOC2)cn1` (stereo not drawn) [2,3-dichloro-N-((3-(2-methylpyrimidin-5-yl)tetrahydrofuran-3-yl)methyl)benzamide]: 15 nM; `Cc1ncc(C(CNC(=O)c2cccc(Cl)c2Cl)CC2(C(F)(F)F)CC2)cn1` (single isomer, unassigned; (+)) [(+)2,3-dichloro-N-[2-(2-methylpyrimidin-5-yl)-3-[1-(trifluor] [(+)2,3-dichloro-N-[2-(2-methylpyrimidin-5-yl)-3-[1-(trifluoromethyl)cyclopropyl]propyl]benzamide]: 1.5 nM; `CC(CNC(=O)c1cccc(Cl)c1Cl)(CC1CC1)c1cnc(C(F)(F)F)nc1` (single isomer, unassigned; (+)) [(+)2,3-dichloro-N-[3-cyclopropyl-2-methyl-2-[2-(trifluoromethyl)pyrimidin-5-yl]propyl]benzamide]: 74 nM.

`CS(=O)(=O)c1ccc(C(=O)NCC2(c3ccc(C(F)(F)F)nc3)CCC(F)(F)CC2)c(Cl)c1` [2-chloro-N-((4,4-difluoro-1-(6-(trifluoromethyl)pyridin-3-yl)cyclohexyl)methyl)-4-(methylsulfonyl)benzamide]: the IC50 came to 1800 nM. For `COc1ccc(C2(CNC(=O)c3ccccc3C)CCCC2)cc1` [N-[1-(4-Methoxy-phenyl)-cyclopentylmethyl]-2-methyl-benzamide], the concentration for half-maximal inhibition (IC50) was 1400 nM. Next, `Cc1ccc(C(CNC(=O)c2ccccc2C)CC(C)C)cn1` (stereo not drawn) [2-Methyl-N-[4-methyl-2-(6-methyl-pyridin-3-yl)-pentyl]-benzamide]: 29 nM. As for `O=C(NCC(c1ccc(F)cc1)c1ccc(C(F)(F)F)nc1)c1c(F)cccc1Cl` (single isomer, unassigned; (+)) [(+)2-chloro-6-fluoro-N-[2-(4-fluorophenyl)-2-[6-(trifluorome] [(+)2-chloro-6-fluoro-N-[2-(4-fluorophenyl)-2-[6-(trifluoromethyl)-3-pyridyl]ethyl]benzamide], the half-maximal inhibitory concentration (IC50) was determined as 15 nM. Next, `Cc1ncc(C(CNC(=O)c2ccccc2Cl)c2ccncc2)cn1` (stereo not drawn) [2-chloro-N-[2-(2-methylpyrimidin-5-yl)-2-(4-pyridyl)ethyl]benzamide]: 1300 nM; `O=C(NCC(CC1(C(F)F)CC1)c1ccc(C2CC2)nc1)c1cccc(Cl)c1Cl` (stereo not drawn) [2,3-dichloro-N-[2-(6-cyclopropyl-3-pyridyl)-3-[1-(difluoromethyl)cyclopropyl]propyl]benzamide]: 0.76 nM; `O=C(NCC1(c2ccc(F)nc2)CCC(F)(F)CC1)c1cc(F)ccc1F` [N-((4,4-difluoro-1-(6-fluoropyridin-3-yl)cyclohexyl)methyl)-2,5-difluorobenzamide]: 1500 nM.

On to `O=C(NCC(CC1CC1)c1cnc(C(F)(F)F)nc1)c1c(F)cccc1Cl` (stereo not drawn) [2-chloro-N-(3-cyclopropyl-2-(2-(trifluoromethyl)pyrimidin-5-] [2-chloro-N-(3-cyclopropyl-2-(2-(trifluoromethyl)pyrimidin-5-yl)propyl)-6-fluorobenzamide], for which the IC50 amounted to 22 nM.

In the case of `O=C(NCC(CC1CC1)c1cnc(C(F)(F)F)nc1)c1ccccc1Cl` (single isomer, unassigned; (+)) [(+)2-chloro-N-[3-cyclopropyl-2-[2-(trifluoromethyl)pyrimidin] [(+)2-chloro-N-[3-cyclopropyl-2-[2-(trifluoromethyl)pyrimidin-5-yl]propyl]benzamide], the 50% inhibitory concentration (IC50) came out at 38 nM. Next, `O=C(NCC(CC1(C(F)(F)F)CC1)c1cnc(C(F)(F)F)nc1)c1cccc(Cl)c1Cl` (single isomer, unassigned; (-)) [(−)2,3-dichloro-N-[3-[1-(trifluoromethyl)cyclopropyl]-2-[2-(] [(−)2,3-dichloro-N-[3-[1-(trifluoromethyl)cyclopropyl]-2-[2-(trifluoromethyl)pyrimidin-5-yl]propyl]benzamide]: 21 nM. Next, `COc1cccc(C(=O)NCC2(c3ccc(C(F)(F)F)nc3)CCC(F)(F)CC2)c1C` [N-((4,4-difluoro-1-(6-(trifluoromethyl)pyridin-3-yl)cyclohexyl)methyl)-3-methoxy-2-methylbenzamide]: 1.6 nM; “(−)2,3-dichloro-N-[3-cyclopropyl-2]benzamide”: 1.9 nM.

As to `O=C(NCC(CC1CC1)c1cnc(C(F)(F)F)nc1)c1cccc(F)c1Cl` (stereo not drawn) [2-chloro-N-(3-cyclopropyl-2-(2-(trifluoromethyl)pyrimidin-5-] [2-chloro-N-(3-cyclopropyl-2-(2-(trifluoromethyl)pyrimidin-5-yl)propyl)-3-fluorobenzamide], the IC50 came to 14 nM. Next, `O=C(NCC(CC1CC1)c1ccc(C(F)(F)F)nc1)c1c(F)cccc1Cl` (single isomer, unassigned; (+)) [(+)2-chloro-N-[3-cyclopropyl-2-[6-(trifluoromethyl)-3-pyridy] [(+)2-chloro-N-[3-cyclopropyl-2-[6-(trifluoromethyl)-3-pyridyl]propyl]-6-fluoro-benzamide]: 50 nM; `Cc1ccc(Cl)c(C(=O)NCC2(c3ccc(Cl)cc3)CCOCC2)c1` [2-Chloro-N-[4-(4-chloro-phenyl)-tetrahydro-pyran-4-ylmethyl]-5-methyl-benzamide]: 62 nM; `O=C(NCC(CC1(C(F)(F)F)CC1)c1ccc(C(F)(F)F)nc1)c1cccc(Cl)c1Cl` (single isomer, unassigned; (+)) [(+)2,3-dichloro-N-[3-[1-(trifluoromethyl)cyclopropyl]-2-[6-(] [(+)2,3-dichloro-N-[3-[1-(trifluoromethyl)cyclopropyl]-2-[6-(trifluoromethyl)-3-pyridyl]propyl]benzamide]: 12 nM. Then `O=C(NCC(CC1CC1)c1cnc(C(F)(F)F)nc1)c1cccc(Cl)c1Cl` (single isomer, unassigned; (+)) [(+)2,3-dichloro-N-[3-cyclopropyl-2-[2-(trifluoromethyl)pyrim] [(+)2,3-dichloro-N-[3-cyclopropyl-2-[2-(trifluoromethyl)pyrimidin-5-yl]propyl]benzamide], with 3.9 nM; and `Cc1cccc(C(=O)NCC2(c3ccc(Cl)cc3)CCOCC2)c1C` [N-[4-(4-Chloro-phenyl)-tetrahydro-pyran-4-ylmethyl]-2,3-dimethyl-benzamide], with 170 nM; and `Cc1ccc(C(CNC(=O)c2cccc(Cl)c2Cl)CC2CC2)c(C)n1` (stereo not drawn) [2,3-dichloro-N-[3-cyclopropyl-2-(2,6-dimethyl-3-pyridyl)propyl]benzamide], with 1300 nM. Next, `O=C(NCC(CC1(C(F)(F)F)CC1)c1ccc(C(F)(F)F)nc1)c1cccc(Cl)c1Cl` (single isomer, unassigned; (-)) [(−)2,3-dichloro-N-[3-[1-(trifluoromethyl)cyclopropyl]-2-[6-(] [(−)2,3-dichloro-N-[3-[1-(trifluoromethyl)cyclopropyl]-2-[6-(trifluoromethyl)-3-pyridyl]propyl]benzamide]: 25 nM. As to `COc1cccc(C(=O)NCC2(c3ccc(F)nc3)CCC(F)(F)CC2)c1F`, the IC50 was found to be 100 nM. Then `O=C(NCC(CC1CC1)c1cnc(C(F)(F)F)nc1)c1c(Cl)cccc1Cl` (stereo not drawn) [2,6-dichloro-N-(3-cyclopropyl-2-(2-(trifluoromethyl)pyrimidi] [2,6-dichloro-N-(3-cyclopropyl-2-(2-(trifluoromethyl)pyrimidin-5-yl)propyl)benzamide], with 5.1 nM. Then `Cc1ncc(C(CNC(=O)c2c(F)cccc2Cl)C2CCOCC2)cn1` (stereo not drawn) [2-chloro-6-fluoro-N-[2-(2-methylpyrimidin-5-yl)-2-tetrahydropyran-4-yl-ethyl]benzamide], with 1900 nM; and `O=C(NCC(c1ccccc1)c1ccnnc1)c1cccc(Cl)c1Cl` (stereo not drawn) [2,3-dichloro-N-(2-phenyl-2-pyridazin-4-yl-ethyl)benzamide], with 94 nM. Then `Cc1ncc(C2(C(C)NC(=O)c3cccc(F)c3Cl)CCOCC2)cn1` (stereo not drawn) [2-chloro-3-fluoro-N-[1-[4-(2-methylpyrimidin-5-yl)tetrahydropyran-4-yl]ethyl]benzamide], with 15 nM.
